Source: US20060249167A1, “Flavor ingredients for cooling preparations” (priority 2003, published 2006)

What was measured:
[1] = Organoleptic (odor and flavor) description of the compound and its isomers; conditions: in vivo

Row | melting point | Structure (SMILES) | flavor [1] | odor [1] | flavor ([1]; listed as (3S,5R,6S,9R) isomer)
1 | – | CC1CCC(C(C)C)C2(C1)OC(=O)C(C)O2 (stereo not shown) [Compound (I), 6-isopropyl-3,9-dimethyl-1,4-dioxaspiro[4.5]decan-2-one] | minty, fresh, piperita type | minty, menthone type odor | –
2 | 33 to 34 °C | CC(C)[C@@H]1CC[C@@H](C)C[C@]12OC(=O)[C@H](C)O2 [Compound of example 1c, (3S, 5S, 6S, 9R)-6-isopropyl-3,9-dimethyl-1,4-dioxaspiro[4.5]decan-2-one] | more of the cooling type with a minty connotation | – | –
3 | – | CC(C)[C@@H]1CC[C@@H](C)C[C@@]12OC(=O)[C@H](C)O2 [Compound of example 1b, (3S, 5R, 6S, 9R)-6-isopropyl-3,9-dimethyl-1,4-dioxaspiro[4.5]decan-2-one] | more of the cooling type with a minty connotation | – | stronger and more lingering effect
4 | – | CC(C)[C@@H]1CC[C@@H](C)CC12OC(=O)[C@H](C)O2 (stereo partly drawn) [Compound of example 1a, (3S, 6S, 9R)-6-isopropyl-3,9-dimethyl-1,4-dioxaspiro[4.5]decan-2-one] | interesting minty note with refreshing effect | – | –
